Results reported in PubChem BioAssay (NCI).
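Protocol summary: plate cells (96-well), add compound at 5 concentrations, incubate 48 h, interpolate endpoints linearly. The concentration for 50% growth inhibition is given as GI50. Definition used: TGI = concentration required for complete inhibition of growth.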

Experiments:
Experiment in all cases: NCI-60 cell line screen, 48 h
HOP-62 NSCLC = system: HOP-62 NSCLC
UACC-62 melanoma = system: UACC-62 melanoma
K-562 leukemia = system: K-562 leukemia
HCT-116 colon = system: HCT-116 colon
MDA-MB-231 breast = system: MDA-MB-231 breast
HCT-15 colon = system: HCT-15 colon
OVCAR-4 ovarian = system: OVCAR-4 ovarian
SR leukemia = system: SR leukemia
SK-MEL-28 melanoma = system: SK-MEL-28 melanoma
786-0 renal = system: 786-0 renal
COLO 205 colon = system: COLO 205 colon
HL-60(TB) leukemia = system: HL-60(TB) leukemia
NCI-H460 lung = system: NCI-H460 lung

Row | Structure (SMILES) | TGI (HOP-62 NSCLC) | TGI (UACC-62 melanoma) | TGI (K-562 leukemia) | TGI (HCT-116 colon) | TGI (MDA-MB-231 breast) | TGI (HCT-15 colon) | TGI (OVCAR-4 ovarian) | TGI (SR leukemia) | TGI (SK-MEL-28 melanoma) | TGI (786-0 renal) | TGI (COLO 205 colon) | TGI (HL-60(TB) leukemia) | TGI (NCI-H460 lung) | GI50 (MDA-MB-231 breast)
1 | Cc1ccc(CS(=O)(=O)C/N=c2\sc3ccccc3nc2/C=C(\O)c2ccc(Cl)cc2)cc1 | > 10 µM | > 10 µM | > 10 µM | > 10 µM | > 10 µM | > 10 µM | > 10 µM | > 10 µM | > 10 µM | > 10 µM | > 10 µM |  |  | 
2 | O=C(Nc1ccccc1C(=O)O)/C(=C/c1ccccc1)NC(=O)c1ccccc1 | > 100 µM | > 100 µM | > 100 µM | > 100 µM | > 100 µM | > 100 µM |  | > 100 µM | > 100 µM | > 100 µM | > 100 µM | > 100 µM | > 100 µM | 
3 | O=c1cc(-c2ccccc2)oc2ccc(Oc3nnnn3-c3ccccc3)cc12 | > 82.3 µM | > 100 µM | > 100 µM | > 100 µM |  | > 100 µM | > 100 µM | > 100 µM | > 100 µM | > 100 µM | > 100 µM | > 100 µM | > 100 µM | 
4 | CCN1CC2=C(NC(=S)NC2c2cc(OC)c(OC)c(OC)c2)/C(=C/c2cc(OC)c(OC)c(OC)c2)C1 (stereo not drawn) | > 100 µM | > 100 µM | 66.3 µM | > 100 µM | > 100 µM | > 100 µM | > 100 µM |  | 47.2 µM | > 100 µM | 52.9 µM | 56.7 µM | > 100 µM | 
5 | O=C1NC(=O)C(C(c2ccc(Cl)cc2)C2C(=O)NC(=O)NC2=O)C(=O)N1 | > 100 µM | > 100 µM | > 100 µM | > 100 µM | > 100 µM | > 100 µM | > 100 µM |  | > 100 µM | > 100 µM | > 100 µM | > 100 µM | > 100 µM | 
6 | O=P1(Oc2ccc(Cl)cc2)OCCS1 (stereo not drawn) | > 100 µM | > 100 µM |  | > 100 µM | > 100 µM | > 100 µM |  | > 100 µM | > 100 µM | > 100 µM | > 100 µM | > 100 µM | > 100 µM | 
7 | CN(C)C=Nc1cccc2cnccc12 | > 100 µM | > 100 µM | > 100 µM | > 100 µM | > 100 µM | > 100 µM | > 100 µM | > 100 µM | > 100 µM | > 100 µM | > 100 µM | > 100 µM |  | 
8 | COC(=O)C1C2C=CC(C2)N1S(=O)(=O)c1ccccc1 (stereo not drawn) | > 100 µM | > 100 µM | > 100 µM | > 100 µM | > 100 µM | > 100 µM | > 100 µM |  | > 100 µM | > 100 µM | > 100 µM |  | > 100 µM | 
9 | O=[N+]([O-])c1cccc2nc3ccccc3c(NCCCN3CCOCC3)c12 | 0.0618 µM | 0.0326 µM |  | < 0.0298 µM | 0.0973 µM | 0.0491 µM | 0.0494 µM |  | 0.138 µM | 0.0404 µM | 0.0303 µM | 0.157 µM | 0.0661 µM | 
10 | Cc1c[nH]c(C(=O)O)c1-c1ccc2c(-c3ccccc3)nc3ccccc3n12 | 46.4 µM | 42.5 µM | > 100 µM | > 100 µM | 95 µM | 94.1 µM | > 100 µM | 66.2 µM | 76.3 µM | > 100 µM | > 100 µM |  | > 100 µM | 
11 | CC(C)N=C(NC#N)NS(=O)(=O)c1cnccc1Nc1ccc(Cl)cc1 | > 100 µM | > 100 µM | > 100 µM | > 100 µM | > 100 µM | > 100 µM | > 100 µM |  | > 100 µM | > 100 µM | > 100 µM |  |  | 
12 | COC(=NCCC1=CCCCC1)OC | > 100 µM | > 100 µM | > 100 µM | > 100 µM | > 100 µM | > 100 µM | > 100 µM |  | > 100 µM | > 100 µM | 31.2 µM |  | > 100 µM | 
13 | COc1ccc(N[C@H](CS(=O)c2ccc(C)cc2)C(F)(F)C(F)(F)F)cc1 (stereo partly drawn) | > 100 µM | > 100 µM | > 100 µM | > 100 µM |  | > 100 µM | > 100 µM |  | > 100 µM | > 100 µM | > 100 µM | > 100 µM | > 100 µM | 
14 | COc1ccc(C2=NN(c3ccccc3)C(c3cc4cc(Br)ccc4nc3Cl)C2)cc1 (stereo not drawn) | > 25 µM |  | > 25 µM | > 25 µM |  | > 25 µM | > 25 µM | > 25 µM | > 25 µM | > 25 µM | > 25 µM | > 25 µM |  | 
15 | O=C1c2ccccc2C(=O)N1CCCCCCNOCCCN1C(=O)c2ccccc2C1=O | > 100 µM | 50.3 µM | 98.2 µM | > 100 µM | > 100 µM | > 100 µM | 93.3 µM | > 100 µM | > 100 µM | > 100 µM | > 100 µM |  | > 100 µM | 
16 | CC(=O)[O-].CC(=O)[O-].[NH2-].[Pt+2].c1ccncc1 | > 100 µM | > 100 µM | 71.6 µM | > 100 µM | > 100 µM | > 100 µM | > 100 µM |  | > 100 µM | > 100 µM | > 100 µM | 43.7 µM | > 100 µM | > 100 µM
17 | CN(C)CC(CO)(CN(C)C)CN(C)C | > 100 µM | > 100 µM | > 100 µM | > 100 µM |  | > 100 µM | > 100 µM | > 100 µM | > 100 µM | > 100 µM | > 100 µM | > 100 µM | > 100 µM | 
18 | C#CCOC(=O)C(N)CSSCC(N)C(=O)O (stereo not drawn) | > 100 µM | > 100 µM |  | > 100 µM | > 100 µM | > 100 µM | > 100 µM | > 100 µM | > 100 µM | > 100 µM | > 100 µM | > 100 µM | > 100 µM | 
19 | CN1CCN(C(=S)N(C(=O)c2ccco2)c2ccccc2)CC1 |  | > 100 µM | > 100 µM |  | > 100 µM | > 100 µM | > 100 µM | > 100 µM | > 100 µM | > 100 µM | > 100 µM | > 100 µM | > 100 µM | 
